Experimental data as given in patent publication US20250170130A1, “MODULATORS OF MYC FAMILY PROTO-ONCOGENE PROTEIN” (Nalo Therapeutics, priority 2022, published 2025).
Like-named read-outs stand apart in the source and are kept apart here.

Experiments:
[1] = target: T1, MycN (Homo sapiens, UniProt P04198); assay: Degradation of MycN protein in SK-N-BE(2) cells, JESS/Western blot of lysates; type: cell-based; details: SKNBE2, 24 h; for Dmax at 0.5 µM: read-out: % Degradation of MycN (SKNBE2) 24 h, 0.5 μM; for Dmax at 1 µM: read-out: % Degradation of MycN (SKNBE2) 24 h, 1 μM; for Dmax at 3 µM: read-out: % Degradation of MycN (SKNBE2) 24 h, 3 μM; for Dmax at 6 µM: read-out: % Degradation of MycN (SKNBE2) 24 h, 6 μM
T1 construct: endogenous in cells; host or cells: SK-N-BE(2)
T1 sequence (P04198 1-464): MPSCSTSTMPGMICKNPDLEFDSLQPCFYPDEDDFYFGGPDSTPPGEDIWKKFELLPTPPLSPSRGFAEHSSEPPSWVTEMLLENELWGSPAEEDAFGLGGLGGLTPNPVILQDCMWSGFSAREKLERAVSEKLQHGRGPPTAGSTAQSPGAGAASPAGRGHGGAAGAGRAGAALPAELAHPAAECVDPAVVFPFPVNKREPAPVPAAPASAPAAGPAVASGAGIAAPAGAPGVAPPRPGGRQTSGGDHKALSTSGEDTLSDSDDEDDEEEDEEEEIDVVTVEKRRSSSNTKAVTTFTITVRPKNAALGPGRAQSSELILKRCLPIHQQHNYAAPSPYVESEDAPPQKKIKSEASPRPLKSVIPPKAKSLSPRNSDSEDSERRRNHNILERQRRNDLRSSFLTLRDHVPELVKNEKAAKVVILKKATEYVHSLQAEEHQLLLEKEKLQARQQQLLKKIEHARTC
Method in brief: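 SK-N-BE(2) adherent cells (5E5 per well of a 6 well dish) were grown 24 hrs, then exposed to compounds diluted 1 in 20 in media, with DMSO controls, for 24 hrs. Cells were scraped, pelleted, PBS washed and lysed in RIPA buffer cocktail; after BCA protein quantitation, n-myc was detected by chemiluminescence on JESS/Western blot with tubulin and GAPDH loading controls read in the near infra red channel.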

[2] = target: T2, MycC (Homo sapiens, UniProt P01106); assay: Degradation of MycC protein in L363 cells, JESS/Western blot of lysates; type: cell-based; details: L-363, 24 h; for Dmax at 0.5 µM: read-out: % Degradation of MycC (L-363) 24 h, 0.5 μM; for Dmax at 1 µM: read-out: % Degradation of MycC (L-363) 24 h, 1 μM; for Dmax at 3 µM: read-out: % Degradation of MycC (L-363) 24 h, 3 μM; for Dmax at 6 µM: read-out: % Degradation of MycC (L-363) 24 h, 6 μM
T2 construct: endogenous in cells; host or cells: L363
T2 sequence (P01106 whole entry): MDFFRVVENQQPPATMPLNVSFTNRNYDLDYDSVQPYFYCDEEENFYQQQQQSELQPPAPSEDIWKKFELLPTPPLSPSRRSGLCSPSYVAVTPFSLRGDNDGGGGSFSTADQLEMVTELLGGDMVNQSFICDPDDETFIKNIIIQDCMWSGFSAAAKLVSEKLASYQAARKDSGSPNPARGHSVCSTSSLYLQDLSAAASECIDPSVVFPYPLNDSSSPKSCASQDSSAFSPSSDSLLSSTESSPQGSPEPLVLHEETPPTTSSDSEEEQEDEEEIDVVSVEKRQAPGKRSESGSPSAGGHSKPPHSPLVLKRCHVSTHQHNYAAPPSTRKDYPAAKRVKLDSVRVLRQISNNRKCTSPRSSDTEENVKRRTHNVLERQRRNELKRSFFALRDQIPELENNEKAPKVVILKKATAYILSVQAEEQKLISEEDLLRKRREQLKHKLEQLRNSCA
Method in brief: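 L363 suspension cells were seeded at 1E6 cells per well and exposed to compound (stock 10 mM in DMSO) for 24 hrs. Cells were collected, spun down, rinsed with PBS, lysed in RIPA buffer cocktail on ice, clarified and kept at −80 degrees. Lysate protein was quantified by BCA, and c-myc was measured on JESS by chemiluminescence with tubulin and GAPDH loading controls in the NIR channel.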

Row | SMILES | Dmax at 0.5 µM ([1]; SKNBE2 cells, 24 h, 0.5 μM) [%] | Dmax at 1 µM ([1]; SKNBE2 cells, 24 h, 1 μM) [%] | Dmax at 3 µM ([1]; SKNBE2 cells, 24 h, 3 μM) [%] | Dmax at 6 µM ([1]; SKNBE2 cells, 24 h, 6 μM) [%] | Dmax at 0.5 µM ([2]; L-363 cells, 24 h) [%] | Dmax at 1 µM ([2]; L-363 cells, 24 h, 1 μM) [%] | Dmax at 3 µM ([2]; L-363 cells, 24 h, 3 μM) [%] | Dmax at 6 µM ([2]; L-363 cells, 24 h, 6 μM) [%] | Dmax at 1 µM [1] [%] | Dmax at 3 µM [1] [%] | Dmax at 6 µM [1] [%] | Dmax at 3 µM [2] [%] | Dmax at 6 µM [2] [%] | Dmax at 0.5 µM [1] [%] | Dmax at 1 µM [2] [%]
1 | c1cc(Nc2cc(C3CCCC3)[nH]n2)nc(N2CC3(CN4CCC4)CC2C3)n1 [Compound 76, 2-[4-(Azetidin-1-ylmethyl)-2-azabicyclo[2.1.1]hexan-2-yl]-N-(5-cyclopentyl-1H-pyrazol-3-yl)pyrimidin-4-amine] | – | – | – | – | – | – | – | – | < 20 | 80 to 100 | 80 to 100 | < 20 | 80 to 100 | – | –
2 | CC(C)NCC12CC(C1)N(c1nccc(Nc3cc(C4CCCC4)[nH]n3)n1)C2 [Compound 78, N-(5-Cyclopentyl-1H-pyrazol-3-yl)-2-[4-[(isopropylamino)methyl]-2-azabicyclo[2.1.1]hexan-2-yl]pyrimidin-4-amine] | – | – | – | – | – | – | – | – | 20 to 49 | 80 to 100 | 80 to 100 | 50 to 79 | 80 to 100 | < 20 | < 20
3 | CNCC12CC(C1)N(c1nccc(Nc3cc(C4CCC4)[nH]n3)n1)C2 [Compound 81, N-(5-Cyclobutyl-1H-pyrazol-3-yl)-2-[4-(methylaminomethyl)-2-azabicyclo[2.1.1]hexan-2-yl]pyrimidin-4-amine] | 20 to 49 | 50 to 79 | 80 to 100 | 80 to 100 | 20 to 49 | 20 to 49 | 80 to 100 | 80 to 100 | – | – | – | – | – | – | –
4 | CN1CC2(C1)CN(c1nccc(Nc3cc(C4CCCC4)[nH]n3)n1)C2 [Compound 84, N-(5-cyclopentyl-1H-pyrazol-3-yl)-2-(6-methyl-2,6-diazaspiro[3.3]heptan-2-yl)pyrimidin-4-amine] | – | – | – | 20 to 49 | 20 to 49 | 20 to 49 | < 20 | 20 to 49 | – | – | – | – | – | – | –

More lines, main results first:

Row | Dmax at 0.5 µM ([1]; SKNBE2 cells, 24 h, 0.5 μM) [%] | Dmax at 1 µM ([1]; SKNBE2 cells, 24 h, 1 μM) [%] | Dmax at 3 µM ([1]; SKNBE2 cells, 24 h, 3 μM) [%] | Dmax at 6 µM ([1]; SKNBE2 cells, 24 h, 6 μM) [%] | Dmax at 0.5 µM ([2]; L-363 cells, 24 h) [%] | Dmax at 1 µM ([2]; L-363 cells, 24 h, 1 μM) [%] | Dmax at 3 µM ([2]; L-363 cells, 24 h, 3 μM) [%] | Dmax at 6 µM ([2]; L-363 cells, 24 h, 6 μM) [%] | SMILES | Dmax at 1 µM [1] [%] | Dmax at 3 µM [1] [%] | Dmax at 6 µM [1] [%] | Dmax at 3 µM [2] [%] | Dmax at 6 µM [2] [%] | Dmax at 0.5 µM [1] [%] | Dmax at 1 µM [2] [%]
5 | 20 to 49 | 50 to 79 | 80 to 100 | 80 to 100 | 20 to 49 | 80 to 100 | 80 to 100 | 80 to 100 | FC(F)(F)CNCC12CC(C1)N(c1nccc(Nc3cc(C4CCCC4)[nH]n3)n1)C2 [Compound 71, N-(5-Cyclopentyl-1H-pyrazol-3-yl)-2-[4-[(2,2,2-trifluoroethylamino)methyl]-2-azabicyclo[2.1.1]hexan-2-yl]pyrimidin-4-amine] | – | – | – | – | – | – | –
6 | 20 to 49 | 20 to 49 | 50 to 79 | 80 to 100 | – | – | – | 80 to 100 | c1cc(Nc2cc(C3CCCC3)[nH]n2)nc(N2CC3(CN4CCOCC4)CC2C3)n1 [Compound 72, N-(5-Cyclopentyl-1H-pyrazol-3-yl)-2-[4-(morpholinomethyl)-2-azabicyclo[2.1.1]hexan-2-yl]pyrimidin-4-amine] | – | – | – | – | – | – | –
7 | < 20 | 20 to 49 | 50 to 79 | 80 to 100 | – | – | 20 to 49 | 80 to 100 | O=S1(=O)CCN(CC23CC(C2)N(c2nccc(Nc4cc(C5CCCC5)[nH]n4)n2)C3)CC1 [Compound 73, N-(5-Cyclopentyl-1H-pyrazol-3-yl)-2-[4-[(1,1-dioxo-1,4-thiazinan-4-yl)methyl]-2-azabicyclo[2.1.1]hexan-2-yl]pyrimidin-4-amine] | – | – | – | – | – | – | –
8 | 20 to 49 | 20 to 49 | 50 to 79 | 80 to 100 | – | – | – | 50 to 79 | c1cc(Nc2cc(C3CCCC3)[nH]n2)nc(N2CC3(CN4CCCC4)CC2C3)n1 [Compound 75, N-(5-Cyclopentyl-1H-pyrazol-3-yl)-2-[4-(pyrrolidin-1-ylmethyl)-2-azabicyclo[2.1.1]hexan-2-yl]pyrimidin-4-amine] | – | – | – | – | – | – | –
